Reference: publication PMC5218480 (PLoS ONE, 2017)

System: MV-4-11 cells
Assay: Gene expression microarray analysis (Affymetrix PrimeView) and GSEA
Format: cell-based, human
Design: RFU PODN (11730768_x_at) / Fold change /veh PODN (11730768_x_at) / RFU LINC00158 (11744669_a_at) / Fold change /veh LINC00158 (11744669_a_at) / RFU DUSP10 (11751237_a_at) / Fold change /veh DUSP10 (11751237_a_at) / RFU ID3 (11757404_x_at) / Fold change /veh ID3 (11757404_x_at) / RFU PLEKHG5 (11737974_s_at) / Fold change /veh PLEKHG5 (11737974_s_at) / RFU LRRC4B (11730491_at) / Fold change /veh LRRC4B (11730491_at) / RFU GIMAP4 (11747438_a_at) / Fold change /veh GIMAP4 (11747438_a_at) / RFU KRT8 (11758183_x_at) / Fold change /veh KRT8 (11758183_x_at) / RFU CNN1 (11734310_a_at) / Fold change /veh CNN1 (11734310_a_at) / RFU VPS37D (11726825_at) / Fold change /veh VPS37D (11726825_at) / RFU C10orf10 (11716522_x_at) / Fold change /veh C10orf10 (11716522_x_at) / RFU KIR2DL2 /// KIR2DL4 /// KIR2DL5A /// KIR2DL5B /// KIR2DS1 /// KIR2DS2 /// KIR2DS3 /// KIR2DS4 /// KIR3DL3 /// KIR3DL3 /// KIR3DS1 (11738374_at) / Fold change /veh KIR2DL2 /// KIR2DL4 /// KIR2DL5A /// KIR2DL5B /// KIR2DS1 /// KIR2DS2 /// KIR2DS3 /// KIR2DS4 /// KIR3DL3 /// KIR3DL3 /// KIR3DS1 (11738374_at) / RFU C1QL1 (11718748_at) / Fold change /veh C1QL1 (11718748_at) / RFU TMPRSS4 (11747572_a_at) / Fold change /veh TMPRSS4 (11747572_a_at) / RFU HAMP (11756126_x_at) / Fold change /veh HAMP (11756126_x_at) / RFU RNFT2 (11725882_a_at) / Fold change /veh RNFT2 (11725882_a_at) / RFU NR4A2 (11747474_a_at) / Fold change /veh NR4A2 (11747474_a_at) / RFU ABCC12 (11746883_a_at) / Fold change /veh ABCC12 (11746883_a_at) / RFU TMEM136 (11760407_x_at) / Fold change /veh TMEM136 (11760407_x_at) / RFU CLDN22 /// WWC2 (11732394_at) / Fold change /veh CLDN22 /// WWC2 (11732394_at) / RFU HLA-DPB1 (11760878_x_at) / Fold change /veh HLA-DPB1 (11760878_x_at) / RFU SPINT1 (11716480_a_at) / Fold change /veh SPINT1 (11716480_a_at) / RFU GAP43 (11754022_s_at) / Fold change /veh GAP43 (11754022_s_at) / RFU A4GNT (11735810_at) / Fold change /veh A4GNT (11735810_at) / RFU PRB3 (11715151_x_at) / Fold change /veh PRB3 (11715151_x_at) / RFU TUBB4B (11761932_at) / Fold change /veh TUBB4B (11761932_at) / RFU CAPN14 (11732068_a_at) / Fold change /veh CAPN14 (11732068_a_at) / RFU TMCC2 (11721928_a_at) / Fold change /veh TMCC2 (11721928_a_at) / RFU IRGQ (11745062_a_at) / Fold change /veh IRGQ (11745062_a_at) / RFU FAM174B (11720279_a_at) / Fold change /veh FAM174B (11720279_a_at) / RFU TMPRSS4 (11748680_a_at) / Fold change /veh TMPRSS4 (11748680_a_at) / RFU FAM212B (11763350_a_at) / Fold change /veh FAM212B (11763350_a_at) / RFU PLEKHG5 (11743358_a_at) / Fold change /veh PLEKHG5 (11743358_a_at) / RFU ZSCAN30 (11745921_a_at) / Fold change /veh ZSCAN30 (11745921_a_at) / RFU CMKLR1 (11741424_a_at) / Fold change /veh CMKLR1 (11741424_a_at) / RFU LOC101060620 /// MAPK8IP1 (11723275_at) / Fold change /veh LOC101060620 /// MAPK8IP1 (11723275_at) / RFU SPTSSB (11747773_x_at) / Fold change /veh SPTSSB (11747773_x_at) / RFU PRSS12 (11739890_at) / Fold change /veh PRSS12 (11739890_at) / RFU BIN1 (11741810_x_at) / Fold change /veh BIN1 (11741810_x_at) / RFU WNT11 (11732464_a_at) / Fold change /veh WNT11 (11732464_a_at) / RFU C10orf10 (11716521_a_at) / Fold change /veh C10orf10 (11716521_a_at) / RFU C5orf56 (11738089_at) / Fold change /veh C5orf56 (11738089_at) / RFU CYB561 (11721691_x_at) / Fold change /veh CYB561 (11721691_x_at) / RFU ANKRD19P (11752326_a_at) / Fold change /veh ANKRD19P (11752326_a_at) / RFU OR2T12 /// OR2T33 /// OR2T8 (11738714_s_at) / Fold change /veh OR2T12 /// OR2T33 /// OR2T8 (11738714_s_at) / RFU VCAN (11748164_a_at) / Fold change /veh VCAN (11748164_a_at) / RFU JSRP1 (11732532_at) / Fold change /veh JSRP1 (11732532_at) / RFU KRTAP10-11 (11738290_x_at) / Fold change /veh KRTAP10-11 (11738290_x_at) / RFU MYO3A (11730013_a_at) / Fold change /veh MYO3A (11730013_a_at) / RFU EBF3 (11725865_a_at) / Fold change /veh EBF3 (11725865_a_at) / RFU CAMK2N1 (11719241_x_at) / Fold change /veh CAMK2N1 (11719241_x_at) / RFU C5orf56 (11738088_a_at) / Fold change /veh C5orf56 (11738088_a_at) / RFU OLFML3 (11715873_a_at) / Fold change /veh OLFML3 (11715873_a_at) / RFU LOC100653217 /// NTM (11731650_a_at) / Fold change /veh LOC100653217 /// NTM (11731650_a_at) / RFU MAPK11 (11762145_a_at) / Fold change /veh MAPK11 (11762145_a_at) / RFU FIZ1 (11724087_x_at) / Fold change /veh FIZ1 (11724087_x_at) / RFU OASL (11726364_x_at) / Fold change /veh OASL (11726364_x_at) / RFU SOX15 (11748057_x_at) / Fold change /veh SOX15 (11748057_x_at) / RFU CD79A (11719716_a_at) / Fold change /veh CD79A (11719716_a_at) / RFU HIST1H1D (11736915_at) / Fold change /veh HIST1H1D (11736915_at) / RFU CASKIN2 (11723855_a_at) / Fold change /veh CASKIN2 (11723855_a_at) / RFU LOC730098 (11760151_x_at) / Fold change /veh LOC730098 (11760151_x_at) / RFU OR4N2 (11742367_at) / Fold change /veh OR4N2 (11742367_at) / RFU PRRT2 (11749266_a_at) / Fold change /veh PRRT2 (11749266_a_at) / RFU SNX32 (11753110_a_at) / Fold change /veh SNX32 (11753110_a_at) / RFU CDHR5 (11726645_a_at) / Fold change /veh CDHR5 (11726645_a_at) / RFU RCAN1 (11760418_a_at) / Fold change /veh RCAN1 (11760418_a_at) / RFU FAM167A (11723789_a_at) / Fold change /veh FAM167A (11723789_a_at) / RFU FAM26E (11764081_at) / Fold change /veh FAM26E (11764081_at) / RFU ISYNA1 (11749810_s_at) / Fold change /veh ISYNA1 (11749810_s_at) / RFU ACY1 (11761880_at) / Fold change /veh ACY1 (11761880_at) / RFU 11764098_at / Fold change /veh 11764098_at / RFU SAMD14 (11745864_x_at) / Fold change /veh SAMD14 (11745864_x_at) / RFU NPB (11741838_a_at) / Fold change /veh NPB (11741838_a_at) / RFU TMPRSS6 (11731388_a_at) / Fold change /veh TMPRSS6 (11731388_a_at) / RFU KRTAP10-2 (11738614_at) / Fold change /veh KRTAP10-2 (11738614_at) / RFU ARHGAP8 /// PRR5-ARHGAP8 (11727945_x_at) / Fold change /veh ARHGAP8 /// PRR5-ARHGAP8 (11727945_x_at) / RFU KRTAP5-7 /// NADSYN1 (11734609_at) / Fold change /veh KRTAP5-7 /// NADSYN1 (11734609_at) / RFU RASL12 (11751679_a_at) / Fold change /veh RASL12 (11751679_a_at) / RFU CDKN2B (11736163_a_at) / Fold change /veh CDKN2B (11736163_a_at) / RFU PRF1 (11729649_at) / Fold change /veh PRF1 (11729649_at) / RFU, ZNF638 /// ZNF638-IT1 / Fold change vs veh, ZNF638 /// ZNF638-IT1 / RFU, PANK3 / Fold change vs veh, PANK3 / RFU, SH3YL1 / Fold change vs veh, SH3YL1 / RFU, ZEB2 / Fold change vs veh, ZEB2 / RFU, NRIP1 / Fold change vs veh, NRIP1 / RFU, PTTG1IP / Fold change vs veh, PTTG1IP / RFU, CAPN2 / Fold change vs veh, CAPN2 / RFU, MED14 / Fold change vs veh, MED14 / RFU, SNORA58 / Fold change vs veh, SNORA58 / RFU, C1orf63 / Fold change vs veh, C1orf63 / RFU, LRRFIP1 / Fold change vs veh, LRRFIP1 / RFU, NDUFAF7 / Fold change vs veh, NDUFAF7 / RFU, SLC12A2 / Fold change vs veh, SLC12A2 / RFU, IBTK / Fold change vs veh, IBTK / RFU, ESF1 / Fold change vs veh, ESF1 / Fold change vs veh, TMEM50B / RFU, TAOK1 / Fold change vs veh, TAOK1 / RFU, ACBD3 / Fold change vs veh, ACBD3 / RFU, TMA16 / Fold change vs veh, TMA16 / RFU, RWDD3 / Fold change vs veh, RWDD3 / RFU, BCAT1 / Fold change vs veh, BCAT1 / RFU, EDEM3 / Fold change vs veh, EDEM3 / RFU, TMEM33 / Fold change vs veh, TMEM33 / RFU, WDR75 / Fold change vs veh, WDR75 / RFU, AHCTF1 / Fold change vs veh, AHCTF1 / RFU, TFRC / Fold change vs veh, TFRC / RFU, ZDHHC17 / Fold change vs veh, ZDHHC17 / RFU, NOM1 / Fold change vs veh, NOM1 / RFU, ARL8B / Fold change vs veh, ARL8B / RFU, ZBTB11 / Fold change vs veh, ZBTB11 / RFU, TAMM41 / Fold change vs veh, TAMM41 / RFU, KIAA1704 /// LOC100996395 / Fold change vs veh, KIAA1704 /// LOC100996395 / RFU, ING1 / Fold change vs veh, ING1 / RFU, TRMT61B / Fold change vs veh, TRMT61B / RFU, FUBP3 / Fold change vs veh, FUBP3 / RFU, TP53 / Fold change vs veh, TP53 / RFU, TNKS2 / Fold change vs veh, TNKS2 / RFU, ZFP14 / Fold change vs veh, ZFP14 / RFU, ACTR2 / Fold change vs veh, ACTR2 / RFU, PPP3R1 / Fold change vs veh, PPP3R1 / RFU, PIK3R1 / Fold change vs veh, PIK3R1 / RFU, HNRNPA1 / Fold change vs veh, HNRNPA1 / RFU, RNF170 / Fold change vs veh, RNF170 / RFU, ZNF28 / Fold change vs veh, ZNF28 / RFU, RNGTT / Fold change vs veh, RNGTT / RFU, OGT / Fold change vs veh, OGT / RFU, BRD1 / Fold change vs veh, BRD1 / RFU, MARS / Fold change vs veh, MARS / RFU, ZNF655 / Fold change vs veh, ZNF655 / RFU, FAHD1 / Fold change vs veh, FAHD1 / RFU, BDP1 / Fold change vs veh, BDP1 / RFU, LRRCC1 / Fold change vs veh, LRRCC1 / RFU, ARID1A / Fold change vs veh, ARID1A / RFU, ZNF146 / Fold change vs veh, ZNF146 / RFU, ZNF330 / Fold change vs veh, ZNF330 / RFU, GPN3 / Fold change vs veh, GPN3 / RFU, C9orf123 / Fold change vs veh, C9orf123 / RFU, N4BP2L2 / Fold change vs veh, N4BP2L2 / RFU, ARFIP1 / Fold change vs veh, ARFIP1 / RFU, FAM179B / Fold change vs veh, FAM179B / RFU, BCL10 / Fold change vs veh, BCL10 / RFU, UHRF1BP1L / Fold change vs veh, UHRF1BP1L / RFU, BET1 / Fold change vs veh, BET1 / RFU, CNOT2 / Fold change vs veh, CNOT2 / RFU, ZNF268 / Fold change vs veh, ZNF268 / Fold change vs veh, ZNF507 / RFU, DGCR2 / Fold change vs veh, DGCR2 / RFU, WDSUB1 / Fold change vs veh, WDSUB1 / Fold change vs veh, HSP90B1 /// MIR3652 / RFU, ADSS / Fold change vs veh, ADSS / RFU, GK / Fold change vs veh, GK / RFU, ZNF148 / Fold change vs veh, ZNF148 / RFU, TAF9 / Fold change vs veh, TAF9 / RFU, SLC1A5 / Fold change vs veh, SLC1A5 / RFU, SLMO2 / Fold change vs veh, SLMO2 / RFU, ABCC4 / Fold change vs veh, ABCC4 / RFU, LOC101060439 /// RAP1B / Fold change vs veh, LOC101060439 /// RAP1B / RFU, RFX7 / Fold change vs veh, RFX7 / RFU, GTPBP10 / Fold change vs veh, GTPBP10 / RFU, CNEP1R1 / Fold change vs veh, CNEP1R1 / RFU, BIVM-ERCC5 /// ERCC5 / Fold change vs veh, BIVM-ERCC5 /// ERCC5 / RFU, ILF3 / Fold change vs veh, ILF3 / RFU 11762660_at / Fold change /veh 11762660_at / RFU VCAN (11757783_s_at) / Fold change /veh VCAN (11757783_s_at) / RFU DDX43 (11728927_at) / Fold change /veh DDX43 (11728927_at) / RFU KRT8 (11758188_x_at) / Fold change /veh KRT8 (11758188_x_at) / RFU NKD1 (11759106_at) / Fold change /veh NKD1 (11759106_at) / RFU SRD5A1 (11742802_a_at) / Fold change /veh SRD5A1 (11742802_a_at) / RFU TPSAB1 /// TPSB2 (11721975_s_at) / Fold change /veh TPSAB1 /// TPSB2 (11721975_s_at) / RFU GSTM3 (11746129_a_at) / Fold change /veh GSTM3 (11746129_a_at) / RFU IL23R (11737362_x_at) / Fold change /veh IL23R (11737362_x_at) / RFU TMEM51 (11727254_a_at) / Fold change /veh TMEM51 (11727254_a_at) / RFU PIWIL2 (11732686_x_at) / Fold change /veh PIWIL2 (11732686_x_at) / RFU ORM1 (11744905_x_at) / Fold change /veh ORM1 (11744905_x_at) / RFU CCDC152 (11743942_at) / Fold change /veh CCDC152 (11743942_at) / RFU ECM1 (11717891_a_at) / Fold change /veh ECM1 (11717891_a_at) / RFU IL23R (11748794_a_at) / Fold change /veh IL23R (11748794_a_at) / RFU TNFAIP8L3 (11732012_x_at) / Fold change /veh TNFAIP8L3 (11732012_x_at) / RFU MBOAT4 (11741988_at) / Fold change /veh MBOAT4 (11741988_at) / RFU 11764193_at / Fold change /veh 11764193_at / RFU TMEM53 (11763286_at) / Fold change /veh TMEM53 (11763286_at) / RFU MAGEB2 (11727129_at) / Fold change /veh MAGEB2 (11727129_at) / RFU TMEM200A (11744735_a_at) / Fold change /veh TMEM200A (11744735_a_at) / RFU CCDC152 (11751479_a_at) / Fold change /veh CCDC152 (11751479_a_at) / RFU FAM211A (11726209_a_at) / Fold change /veh FAM211A (11726209_a_at) / RFU RGS16 (11746705_a_at) / Fold change /veh RGS16 (11746705_a_at) / RFU VCAN (11755009_s_at) / Fold change /veh VCAN (11755009_s_at) / RFU RHOB (11743442_s_at) / Fold change /veh RHOB (11743442_s_at) / RFU RGS16 (11720943_a_at) / Fold change /veh RGS16 (11720943_a_at) / RFU RGS16 (11720944_at) / Fold change /veh RGS16 (11720944_at) / RFU, VPS4B / Fold change vs veh, VPS4B / RFU, CREB1 / Fold change vs veh, CREB1 / RFU, DNAJC13 / Fold change vs veh, DNAJC13 / RFU, GNAQ / Fold change vs veh, GNAQ / RFU, CDK5R1 / Fold change vs veh, CDK5R1 / RFU, ZRANB3 / Fold change vs veh, ZRANB3 / RFU, CUL4A / Fold change vs veh, CUL4A / RFU, CCNY / Fold change vs veh, CCNY / RFU, UFL1 / Fold change vs veh, UFL1 / RFU, COG3 / Fold change vs veh, COG3 / RFU, DIAPH2 / Fold change vs veh, DIAPH2 / RFU, SKA2 / Fold change vs veh, SKA2 / RFU, AFF3 / Fold change vs veh, AFF3 / RFU, LMF1 / Fold change vs veh, LMF1 / RFU, IPO11 / Fold change vs veh, IPO11 / RFU, DFFB / Fold change vs veh, DFFB / RFU, FOXP1 / Fold change vs veh, FOXP1 / RFU, CARD8 / Fold change vs veh, CARD8 / RFU, STRN3 / Fold change vs veh, STRN3 / RFU, ADK / Fold change vs veh, ADK / RFU, RASSF2 / Fold change vs veh, RASSF2 / RFU, WIPF1 / Fold change vs veh, WIPF1 / RFU, LARP1B / Fold change vs veh, LARP1B / RFU, RASA1 / Fold change vs veh, RASA1 / RFU, RB1 / Fold change vs veh, RB1 / RFU, PPFIA1 / Fold change vs veh, PPFIA1 / RFU, MAT2A / Fold change vs veh, MAT2A / RFU, CCT5 / Fold change vs veh, CCT5 / RFU, WDR92 / Fold change vs veh, WDR92 / RFU, CUX1 / Fold change vs veh, CUX1 / RFU, TTC7A / Fold change vs veh, TTC7A / RFU, TMEM135 / Fold change vs veh, TMEM135 / RFU, DEPTOR / Fold change vs veh, DEPTOR / RFU, CPM / Fold change vs veh, CPM / RFU, DNAJB6 / Fold change vs veh, DNAJB6 / RFU, CACNA2D3 / Fold change vs veh, CACNA2D3 / RFU, DTX4 / Fold change vs veh, DTX4 / RFU, TFCP2 / Fold change vs veh, TFCP2 / RFU, GMCL1 /// GMCL1P1 / Fold change vs veh, GMCL1 /// GMCL1P1 / RFU, AEBP2 / Fold change vs veh, AEBP2 / RFU, SNHG1 /// SNORD22 /// SNORD25 /// SNORD26 /// SNORD27 /// SNORD28 /// SNORD29 /// SNORD31 / Fold change vs veh, SNHG1 /// SNORD22 /// SNORD25 /// SNORD26 /// SNORD27 /// SNORD28 /// SNORD29 /// SNORD31 / Fold change (Aza/veh), C12orf56 (ProbeSet 11735607_a_at) / Fold change (ACY-1035/veh), C12orf56 (ProbeSet 11735607_a_at) / Fold change (Aza/veh), FGFR1OP (ProbeSet 11751329_s_at) / Fold change (ACY-1035/veh), FGFR1OP (ProbeSet 11751329_s_at) / Fold change (Aza/veh), VPS36 (ProbeSet 11739960_a_at) / Fold change (ACY-1035/veh), VPS36 (ProbeSet 11739960_a_at) / RFU SYPL1 (11715823_x_at) / Fold change /veh SYPL1 (11715823_x_at) / RFU IGFBP7 (11715501_s_at) / Fold change /veh IGFBP7 (11715501_s_at) / RFU REEP3 (11722064_at) / Fold change /veh REEP3 (11722064_at) / RFU IGLL1 (11728026_x_at) / Fold change /veh IGLL1 (11728026_x_at): dose or concentration left out as unconfirmed
Conditions: ProbeSet 11731461_x_at; LIST D

Nc1ncn([C@@H]2O[C@H](CO)[C@@H](O)[C@H]2O)c(=O)n1 [azacitidine]
Fold change vs veh, CPM: 0.79
